In patent US20230024096A1, “BIFUNCTIONAL COMPOUNDS FOR THE TREATMENT OF CANCER” (Hoffmann-La Roche Inc., priority 2019, published 2023):

Biological target: T1, SMARCA2 (Homo sapiens, UniProt P51531)
T1 construct: endogenous in cells; host or cells: HT1080 (CRISPR HiBiT knock-in clone, generated in house)
Assay: SMARCA2 HiBiT degradation assay (cellular)
Assay type: cell-based
Conditions: table head names A549; for DC50: 6 h incubation, HiBiT-tagged SMARCA2, luminescence read-out, read-out: HiBit A549 SMARCA2 IP (nM) 6 h; for Emax: A549, 6 h incubation, Emax = amount of residual protein remaining in the cell following compound treatment

T1 sequence (P51531 whole entry): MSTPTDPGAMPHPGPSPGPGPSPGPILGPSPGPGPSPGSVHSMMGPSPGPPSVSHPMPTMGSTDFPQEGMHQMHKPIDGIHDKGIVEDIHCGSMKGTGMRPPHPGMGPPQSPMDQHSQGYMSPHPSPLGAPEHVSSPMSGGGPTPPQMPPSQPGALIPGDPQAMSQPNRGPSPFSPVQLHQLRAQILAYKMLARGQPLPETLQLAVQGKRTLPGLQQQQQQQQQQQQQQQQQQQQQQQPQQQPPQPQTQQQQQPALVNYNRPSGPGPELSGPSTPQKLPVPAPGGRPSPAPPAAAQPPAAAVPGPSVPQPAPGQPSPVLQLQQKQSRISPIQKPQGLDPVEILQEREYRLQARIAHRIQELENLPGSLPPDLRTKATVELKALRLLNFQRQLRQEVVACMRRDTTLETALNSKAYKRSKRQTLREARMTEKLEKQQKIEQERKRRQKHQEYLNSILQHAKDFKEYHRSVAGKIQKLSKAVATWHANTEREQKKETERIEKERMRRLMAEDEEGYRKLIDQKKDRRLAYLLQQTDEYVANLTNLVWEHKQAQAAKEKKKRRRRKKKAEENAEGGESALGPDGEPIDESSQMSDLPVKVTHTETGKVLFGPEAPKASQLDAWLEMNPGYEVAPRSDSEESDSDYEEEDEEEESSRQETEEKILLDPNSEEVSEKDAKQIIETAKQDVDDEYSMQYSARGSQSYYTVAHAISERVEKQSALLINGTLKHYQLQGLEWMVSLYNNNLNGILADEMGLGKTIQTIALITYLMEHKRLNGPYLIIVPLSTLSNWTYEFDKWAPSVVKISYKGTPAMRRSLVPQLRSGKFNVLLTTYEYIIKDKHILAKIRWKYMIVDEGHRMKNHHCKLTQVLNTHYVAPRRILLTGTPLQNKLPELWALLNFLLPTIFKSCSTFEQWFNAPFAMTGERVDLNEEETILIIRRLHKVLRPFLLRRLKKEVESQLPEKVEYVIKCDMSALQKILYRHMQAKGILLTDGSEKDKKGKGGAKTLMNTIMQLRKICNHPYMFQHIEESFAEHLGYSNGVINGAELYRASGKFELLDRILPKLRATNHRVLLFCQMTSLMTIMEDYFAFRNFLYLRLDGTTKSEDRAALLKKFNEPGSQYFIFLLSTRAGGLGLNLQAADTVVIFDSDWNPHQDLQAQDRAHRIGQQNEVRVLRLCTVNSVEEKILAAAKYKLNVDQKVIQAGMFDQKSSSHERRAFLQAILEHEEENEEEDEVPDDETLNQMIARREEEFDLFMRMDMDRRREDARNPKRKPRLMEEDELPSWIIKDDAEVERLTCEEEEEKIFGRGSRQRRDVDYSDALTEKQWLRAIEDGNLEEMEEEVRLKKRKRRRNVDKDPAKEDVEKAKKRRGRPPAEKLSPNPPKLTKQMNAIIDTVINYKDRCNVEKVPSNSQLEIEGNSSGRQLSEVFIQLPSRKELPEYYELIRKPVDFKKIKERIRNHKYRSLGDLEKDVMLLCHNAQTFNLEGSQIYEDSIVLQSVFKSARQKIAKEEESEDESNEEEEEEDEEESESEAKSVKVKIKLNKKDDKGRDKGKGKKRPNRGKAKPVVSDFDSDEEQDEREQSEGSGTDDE

DC50 | Emax | Structure (SMILES)
67 nM | 61% | Nc1nnc(-c2ccccc2O)cc1N1CCC(OCC(=O)NC2CCN(C(=O)CN3CCC(c4ccc(OC5CCC(=O)NC5=O)cc4)CC3)CC2)(c2ccccc2)CC1 (centres unmarked) [Example 194, 2-[[1-[3-amino-6-(2-hydroxyphenyl)pyridazin-4-yl]-4-phenyl-4-piperidyl]oxy]-N-[1-[2-[4-[4-[(2,6-dioxo-3-piperidyl)oxy]phenyl]-1-piperidyl]acetyl]-4-piperidyl]acetamide]
51 nM | 65% | Nc1nnc(-c2ccccc2O)cc1N1CCC(OCC(=O)NC2CCN(C(=O)C3CCN(c4ccc5c(c4)C(=O)N(C4CCC(=O)NC4=O)C5=O)CC3)CC2)(c2ccccc2)CC1 (centres unmarked) [Example 196, 2-[[1-[3-amino-6-(2-hydroxyphenyl)pyridazin-4-yl]-4-phenyl-4-piperidyl]oxy]-N-[1-[1-[2-(2,6-dioxo-3-piperidyl)-1,3-dioxo-isoindolin-5-yl]piperidine-4-carbonyl]-4-piperidyl]acetamide]
46 nM | 30% | Nc1nnc(-c2ccccc2O)cc1N1CCN(c2cccc(OCCN3CCN(C(=O)C4CCN(c5ccc6c(c5)C(=O)N(C5CCC(=O)NC5=O)C6=O)CC4)CC3)c2)C2(CCC2)C1 (centres unmarked) [Example 197, 5-[4-[4-[2-[3-[8-[3-amino-6-(2-hydroxyphenyl)pyridazin-4-yl]-5,8-diazaspiro[3.5]nonan-5-yl]phenoxy]ethyl]piperazine-1-carbonyl]-1-piperidyl]-2-(2,6-dioxo-3-piperidyl)isoindoline-1,3-dione]

Structure (SMILES) | DC50 | Emax
Nc1nnc(-c2ccccc2O)cc1N1CC2CCC(C1)N2c1cccc(OCCN2CCN(C(=O)CN3CCC(c4ccc(OC5CCC(=O)NC5=O)cn4)CC3)CC2)c1 (centres unmarked) [Example 198, 3-[[6-[1-[2-[4-[2-[3-[3-[3-amino-6-(2-hydroxyphenyl)pyridazin-4-yl]-3,8-diazabicyclo[3.2.1]octan-8-yl]phenoxy]ethyl]piperazin-1-yl]-2-oxo-ethyl]-4-piperidyl]-3-pyridyl]oxy]piperidine-2,6-dione] | 277 nM | 68%
